Measurements from ChEMBL document CHEMBL1201862, “PubChem BioAssay data set” (2004).
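Compound exposure: 48 hours, 5 concentrations, 96-well plates. Here, GI50 denotes the concentration required for 50% inhibition of growth.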 Calls of active or inactive are those of the source. Cut-off read from the data, not from the text of the source: active = GI50 up to about 1.1 µM and inactive = higher.

What was measured:
Experiment in all cases: NCI-60 cell line screen, 48 h
A549 = test system: A549
MDA-MB-435 = test system: MDA-MB-435
SNB-75 = test system: SNB-75
SF-268 = test system: SF-268
SR = test system: SR
Hs-578T = test system: Hs-578T
PC-3 = test system: PC-3
HL-60 = test system: HL-60
RXF 393 = test system: RXF 393
SK-MEL-5 = test system: SK-MEL-5
BT-549 = test system: BT-549
NCI-H460 = test system: NCI-H460
U-251 = test system: U-251
MDA-MB-231 = test system: MDA-MB-231
MOLT-4 = test system: MOLT-4
HOP-62 = test system: HOP-62
LOX IMVI = test system: LOX IMVI
NCI-H226 = test system: NCI-H226
SK-OV-3 = test system: SK-OV-3
NCI-H522 = test system: NCI-H522

Measured: GI50

COC1=CC(=O)C[C@@H](C)[C@]12Oc1c(Cl)c(OC)cc(OC)c1C2=O [GRISEOFULVIN]
inactive: A549 63.5 µM | MDA-MB-435 2.42 µM | SNB-75 4.5 µM | SF-268 > 68.9 µM | SR 7.48 µM | Hs-578T 11.9 µM | PC-3 10.8 µM | HL-60 6.7 µM | RXF 393 10.5 µM | SK-MEL-5 7.62 µM | BT-549 > 39.5 µM | NCI-H460 28 µM | U-251 27.7 µM | MDA-MB-231 6.41 µM | MOLT-4 39.9 µM | HOP-62 49.9 µM | LOX IMVI 18.7 µM | NCI-H226 52.8 µM | SK-OV-3 35.4 µM | NCI-H522 8.11 µM
